{"source": "PubChem BioAssay AID2382", "about": "(Broad Institute, 2010)", "note": "Inconclusive results are not listed. Calls of active or inactive are those of the source.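 How the source made its calls: active means IC50 at or below a set limit past the top dose tested; inconclusive means flat curve with 30 to 70% signal change, or a failed fit; inactive means IC50 above that set limit.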", "data": [{"system": "NIH3T3-HGL HSF1-luciferase reporter, MG132-induced, 8 h", "assay": "decrease of HSF1-responsive luciferase luminescence – cell-based, NIH3T3, dose retest, confirmation (AID 2382)", "values": [{"smiles": "O=C(NN=C1CCC(c2ccccc2)CC1)c1cc2c(s1)CCCC2", "note": "(stereo not drawn)", "IC50": "> 19.5 µM (inactive)"}, {"smiles": "C#CCOCCOCCOCCNc1nc(N2CCN(C(=O)[C@H](CCC(=O)O)n3cc(C(N)Cc4ccc(O)cc4)nn3)CC2)nc(N2CCN(C(=O)[C@H](Cc3ccc(O)cc3)n3cc(C(N)[C@H](C)CC)nn3)CC2)n1", "note": "(stereo partly drawn)", "IC50": "> 19.5 µM (inactive)"}, {"smiles": "Cc1cc(=O)[nH]c(NN=C2CCC(C(C)(C)C)CC2)n1", "note": "(stereo not drawn)", "IC50": "> 19.5 µM (inactive)"}]}]}
